Measurements reported in patent publication US9212163B2, “Pesticidal compositions and processes related thereto” (Dow AgroSciences LLC, priority 2012, dated 2015).

The compounds below were run on Beet Armyworm (BAW) (Spodoptera exigua) (assay: Bioassay on Beet Armyworm (BAW), 128-well diet tray assay). Conditions: Table 3: Assay Results Part 1.
Format: in vivo
Procedure: Certain molecules disclosed in this document were tested against BAW, CEW and CL using procedures described in the following examples. In the reporting of the results, the “BAW & CEW & CL Rating Table” was used (See Table Section).
Bioassays on BAW (Spodoptera exigua)
Bioassays on BAW were conducted using a 128-well diet tray assay. One to five second instar BAW larvae were placed in each well (3 mL) of the diet tray that had been previously filled with 1 mL of artificial diet to which 50 μg/cm^2 of the test compound (dissolved in 50 μL of 90:10 acetone-water mixture) had been applied (to each of eight wells) and then allowed to dry. Trays were covered with a clear self-adhesive cover, and held at 25° C., 14:10 light-dark for five to seven days. Percent mortality was recorded for the larvae in each well; activity in the eight wells was then averaged. The results are indicated in the tables entitled “Table 3: Assay Results Part 1” and “Table 4: Assay Results Part 2” (See Table Section).

Compound | BAW Rating
Cc1cc(/C=C/C(c2cc(Cl)cc(Cl)c2)C(F)(F)F)ccc1C(=O)NCc1nnc(C2CC2)o1 (stereo not drawn) [AC89, (E)-N-((5-Cyclopropyl-1,3,4-oxadiazol-2-yl)methyl)-4-(3-(3,5-dichlorophenyl)-4,4,4-trifluorobut-1-en-1-yl)-2-methylbenzamide] | A (50-100)
FC(F)(F)CNC(=S)CNC(=S)c1ccc(/C=C/C(c2cc(Cl)c(Cl)c(Cl)c2)C(F)(F)F)cc1Br (stereo not drawn) [AC90, (E)-2-Bromo-N-(2-thioxo-2-((2,2,2-trifluoroethyl)amino)ethyl)-4-(4,4,4-trifluoro-3-(3,4,5-trichlorophenyl)but-1-en-1-yl)benzothioamide] | A (50-100)
O=C(CNC(=S)c1ccc(/C=C/C(c2cc(Cl)c(Cl)c(Cl)c2)C(F)(F)F)cc1Br)NCC(F)(F)F (stereo not drawn) [AC91, (E)-2-(2-Bromo-4-(4,4,4-trifluoro-3-(3,4,5-trichlorophenyl)but-1-en-1-yl)phenylthioamido)-N-(2,2,2-trifluoroethyl)acetamide] | A (50-100)
O=C(NCC(=S)NCC(F)(F)F)c1ccc(/C=C/C(c2cc(Cl)c(Cl)c(Cl)c2)C(F)(F)F)cc1Br (stereo not drawn) [AC92, (E)-2-Bromo-N-(2-thioxo-2-((2,2,2-trifluoroethyl)amino)ethyl)-4-(4,4,4-trifluoro-3-(3,4,5-trichlorophenyl)but-1-en-1-yl)benzamide] | A (50-100)
Cc1cc(/C=C\C(c2cc(Cl)cc(Cl)c2)C(F)(F)F)ccc1C(=O)NCC(=O)NC1CC1 (stereo not drawn) [AC93] | A (50-100)
O=C(CNC(=O)c1ccc(/C=C\C(c2cc(Cl)c(Cl)c(Cl)c2)C(F)(F)F)cc1Br)NCC(F)(F)F (stereo not drawn) [AC95, (Z)-2-Bromo-N-(2-oxo-2-((2,2,2-trifluoroethyl)amino)ethyl)-4-(4,4,4-trifluoro-3-(3,4,5-trichlorophenyl)but-1-en-1-yl)benzamide] | A (50-100)
O=C(CNC(=O)c1ccc(/C=C/C(c2cc(Cl)c(F)c(Cl)c2)C(F)(F)F)cc1[N+](=O)[O-])NCC(F)(F)F (stereo not drawn) [AC98] | A (50-100)
O=C(CNC(=O)c1ccc(/C=C/C(c2ccc(F)c(Cl)c2)C(F)(F)F)cc1Br)NCC(F)(F)F (stereo not drawn) [AC99] | A (50-100)
CC(=O)N1CCC(NC(=O)c2ccc(/C=C/C(c3cc(Cl)c(Cl)c(Cl)c3)C(F)(F)F)cc2Br)CC1 (stereo not drawn) [AC103, (E)-N-(1-Acetylpiperidin-4-yl)-2-bromo-4-(4,4,4-trifluoro-3-(3,4,5-trichlorophenyl)but-1-en-1-yl)benzamide] | A (50-100)
O=C(NC1CCN(C(=O)CC(F)(F)F)CC1)c1ccc(/C=C/C(c2cc(Cl)c(Cl)c(Cl)c2)C(F)(F)F)cc1Br (stereo not drawn) [AC104, (E)-2-Bromo-4-(4,4,4-trifluoro-3-(3,4,5-trichlorophenyl)but-1-en-1-yl)-N-(1-(3,3,3-trifluoropropanoyl)piperidin-4-yl)benzamide] | A (50-100)
CN1CCC(NC(=O)c2ccc(/C=C/C(c3cc(Cl)c(Cl)c(Cl)c3)C(F)(F)F)cc2Br)CC1 (stereo not drawn) [AC106, (E)-2-Bromo-N-(1-methylpiperidin-4-yl)-4-(4,4,4-trifluoro-3-(3,4,5-trichlorophenyl)but-1-en-1-yl)benzamide] | A (50-100)
N#CCN1CCC(NC(=O)c2ccc(/C=C/C(c3cc(Cl)c(Cl)c(Cl)c3)C(F)(F)F)cc2Br)CC1 (stereo not drawn) [AC107] | B (More than 0-Less than 50)
O=C(NC1CCN(C2COC2)CC1)c1ccc(/C=C/C(c2cc(Cl)c(Cl)c(Cl)c2)C(F)(F)F)cc1Br (stereo not drawn) [AC108, (E)-2-Bromo-N-(1-(oxetan-3-yl)piperidin-4-yl)-4-(4,4,4-trifluoro-3-(3,4,5-trichlorophenyl)but-1-en-1-yl)benzamide] | B (More than 0-Less than 50)
CONC(=O)CNC(=O)c1ccc(/C=C/C(c2cc(Cl)c(Cl)c(Cl)c2)C(F)(F)F)cc1Br (stereo not drawn) [AC110] | A (50-100)
C=CCNC(=O)CNC(=O)c1ccc(/C=C/C(c2cc(Cl)c(Cl)c(Cl)c2)C(F)(F)F)cc1Br (stereo not drawn) [AC111] | A (50-100)
O=C(NCCc1ccc(Cl)nc1)c1ccc(/C=C/C(c2cc(Cl)c(Cl)c(Cl)c2)C(F)(F)F)cc1Br (stereo not drawn) [AC113] | B (More than 0-Less than 50)
O=C(NC1CCNCC1)c1ccc(/C=C/C(c2cc(Cl)c(Cl)c(Cl)c2)C(F)(F)F)cc1Br (stereo not drawn) [AC114, (E)-2-Bromo-N-(piperidin-4-yl)-4-(4,4,4-trifluoro-3-(3,4,5-trichlorophenyl)but-1-en-1-yl)benzamide] | A (50-100)
Cc1cc(/C=C/C(c2cc(Cl)cc(Cl)c2)C(F)(F)F)ccc1C(=S)NCc1ccc(Cl)nc1 (stereo not drawn) [AC115, (E)-N-((6-Chloropyridin-3-yl)methyl)-4-(3-(3,5-dichlorophenyl)-4,4,4-trifluorobut-1-en-1-yl)-2-methylbenzothioamide] | A (50-100)
Cc1cc(/C=C/C(c2cc(Cl)cc(Cl)c2)C(F)(F)F)ccc1C(=O)N(C)Cc1ccc(Cl)nc1 (stereo not drawn) [AC117] | A (50-100)
Cc1cc(/C=C/C(c2cc(Cl)cc(Cl)c2)C(F)(F)F)ccc1C(=O)NCC1CCCO1 (stereo not drawn) [AC118] | A (50-100)
O=C(CC(F)(F)F)NC1CCCc2cc(/C=C/C(c3cc(Cl)c(Cl)c(Cl)c3)C(F)(F)F)ccc21 (stereo not drawn) [BC5] | A (50-100)
O=C(NC1CCc2cc(/C=C/C(c3cc(Cl)c(Cl)c(Cl)c3)C(F)(F)F)ccc21)C1CC1 (stereo not drawn) [BC6] | A (50-100)
O=C(NC1CCCc2cc(/C=C/C(c3cc(Cl)c(Cl)c(Cl)c3)C(F)(F)F)ccc21)C1CC1 (stereo not drawn) [BC7] | A (50-100)
O=C(CC(F)(F)F)NC1CCc2cc(/C=C/C(c3cc(Cl)c(F)c(Cl)c3)C(F)(F)F)ccc21 (stereo not drawn) [BC8] | A (50-100)

Compound | BAW Rating
O=C(Cc1ccc(Cl)nc1)NC1CCc2cc(/C=C/C(c3cc(Cl)c(F)c(Cl)c3)C(F)(F)F)ccc21 (stereo not drawn) [BC9] | A (50-100)
Fc1c(Cl)cc(C(/C=C/c2ccc3c(c2)CCC3NCCC(F)(F)F)C(F)(F)F)cc1Cl (stereo not drawn) [BC10, (E)-5-(3-(3,5-Dichloro-4-fluorophenyl)-4,4,4-trifluorobut-1-en-1-yl)-N-(3,3,3-trifluoropropyl)-2,3-dihydro-1H-inden-1-amine] | A (50-100)
O=C(CC(F)(F)F)NCC(=O)n1ccc2cc(/C=C/C(c3cc(Cl)c(F)c(Cl)c3)C(F)(F)F)ccc21 (stereo not drawn) [BC13, (E)-N-(2-(5-(3-(3,5-Dichloro-4-fluorophenyl)-4,4,4-trifluorobut-1-en-1-yl)-1H-indol-1-yl)-2-oxoethyl)-3,3,3-trifluoropropanamide] | A (50-100)
O=C(Cn1ncc2cc(/C=C/C(c3cc(Cl)c(F)c(Cl)c3)C(F)(F)F)ccc2c1=O)NCC(F)(F)F (stereo not drawn) [BC14, (E)-2-(6-(3-(3,5-Dichloro-4-fluorophenyl)-4,4,4-trifluorobut-1-en-1-yl)-1-oxophthalazin-2(1H)-yl)-N-(2,2,2-trifluoroethyl)acetamide] | A (50-100)
O=C(NCc1ccc(/C=C/C(c2cc(Cl)cc(Cl)c2)C(F)(F)F)cc1)C1CC1 (stereo not drawn) [CC2] | A (50-100)
O=C(CC(F)(F)F)NCc1ccc(/C=C/C(c2cc(Cl)cc(Cl)c2)C(F)(F)F)cc1 (stereo not drawn) [CC3] | A (50-100)
CCC(=O)NCc1ccc(/C=C/C(c2cc(Cl)cc(Cl)c2)C(F)(F)F)cc1 (stereo not drawn) [CC4] | A (50-100)
O=C(NCc1ccc(/C=C/C(c2cc(Cl)c(Cl)c(Cl)c2)C(F)(F)F)cc1)C1CC1 (stereo not drawn) [CC5] | A (50-100)
O=C(CC(F)(F)F)NCc1ccc(/C=C/C(c2cc(Cl)c(Cl)c(Cl)c2)C(F)(F)F)cc1 (stereo not drawn) [CC6] | A (50-100)
CC(=O)NCc1ccc(/C=C/C(c2cc(Cl)cc(Cl)c2)C(F)(F)F)cc1Cl (stereo not drawn) [CC7, (E)-N-(2-Chloro-4-(3-(3,5-dichlorophenyl)-4,4,4-trifluorobut-1-en-1-yl)benzyl)acetamide] | A (50-100)
O=C(NCc1ccc(/C=C/C(c2cc(Cl)cc(Cl)c2)C(F)(F)F)cc1Cl)C1CC1 (stereo not drawn) [CC8] | A (50-100)
O=C(CC(F)(F)F)NCc1ccc(/C=C/C(c2cc(Cl)cc(Cl)c2)C(F)(F)F)cc1Cl (stereo not drawn) [CC9] | A (50-100)
O=C(NCc1ccc(/C=C/C(c2cc(Cl)c(Cl)c(Cl)c2)C(F)(F)F)cc1Cl)C1CC1 (stereo not drawn) [CC11] | A (50-100)
O=C(Cc1ccc(Cl)nc1)NCc1ccc(/C=C/C(c2cc(Cl)c(Cl)c(Cl)c2)C(F)(F)F)cc1Cl (stereo not drawn) [CC14] | A (50-100)
O=C(NCc1ccc(/C=C/C(c2cc(Cl)c(F)c(Cl)c2)C(F)(F)F)cc1Cl)C1CC1 (stereo not drawn) [CC15] | A (50-100)
O=C(NCc1ccc(/C=C/C(c2ccc(Cl)c(Cl)c2)C(F)(F)F)cc1Cl)C1CC1 (stereo not drawn) [CC17] | A (50-100)
O=C(CC(F)(F)F)NCc1ccc(/C=C/C(c2ccc(Cl)c(Cl)c2)C(F)(F)F)cc1Cl (stereo not drawn) [CC18] | A (50-100)
CSCCC(=O)NCc1ccc(/C=C/C(c2cc(Cl)c(Cl)c(Cl)c2)C(F)(F)F)cc1Cl (stereo not drawn) [CC19] | A (50-100)
FC(F)(F)C(/C=C/c1ccc(CNC(=S)C2CC2)c(Cl)c1)c1cc(Cl)c(Cl)c(Cl)c1 (stereo not drawn) [CC20] | A (50-100)
O=C(NCc1ccc(/C=C/C(c2cc(Cl)cc(Cl)c2)C(F)(F)F)cc1C(F)(F)F)C1CC1 (stereo not drawn) [CC21] | A (50-100)
O=C(NCc1ccc(/C=C/C(c2cc(Cl)c(Cl)c(Cl)c2)C(F)(F)F)cc1C(F)(F)F)C1CC1 (stereo not drawn) [CC22] | A (50-100)
O=C(NCc1ccc(/C=C/C(c2cc(Cl)c(Cl)c(Cl)c2)C(F)(F)F)cc1C(F)(F)F)c1cccnc1 (stereo not drawn) [CC23] | A (50-100)
O=C(CC(F)(F)F)NCc1ccc(/C=C/C(c2cc(Cl)c(Cl)c(Cl)c2)C(F)(F)F)cc1C(F)(F)F (stereo not drawn) [CC24] | A (50-100)
O=C(CC(F)(F)F)NCc1ccc(/C=C/C(c2cc(Cl)c(Cl)c(Cl)c2)C(F)(F)F)cc1Br (stereo not drawn) [CC25] | A (50-100)
